Data from patent publication US4211794A, “N,N-Disubstituted aminomethylphenylethanolamines” (Pfizer Inc., priority 1979, dated 1980).

Assays:
[1] = tested on: encephalomyocarditis (EMC) virus; experiment: Prophylactic use against encephalomyocarditis (EMC) viral infection in mice; type: in vivo, mice (female albino); details: single intraperitoneal, 18-24 hours before EMC challenge, tenth day after challenge, average of 2 runs
Protocol: Prophylactic use of compounds (1-I), (2-I) and (3-I) against infection by encephalomyocardis viral infection in mice
Three groups of ten female albino micce (20-25 g. body weight) were given single 0.5 ml. intraperitoneal injections containing dosage levels of 1.5, 5, and 15 mg. of the appropriate compound/kg. body weight, respectively. A fourth control group was given no such injection. Eighteen to twenty-four hours later all four groups were challenged with a 0.2 ml. subcutaneous injection containing 20-30 times the LD50, the dosage level causing a 50% death rate in ten days, of encephalomyocarditis (EMC) virus. The following relative average survival rates were found from an average of 2 such runs for compounds 1-I, 2-I and 3-I.
Antiviral activity is expressed as the average relative survival (Sr) of 2 runs of experimental groups compared to the controls on the tenth day after challenge. Sr is defined by the formula [formula] wherein Sr=relative survival;
Sx =percent survival after ten days in experimental group;
Xi =number of survivors on the ith day in experimental group;
ei =number of survivors on the ith day in control group.

[2] = tested on: Sarcoma 180J; experiment: Sarcoma 180J Model for Assessment of Tumor Rejection; type: in vivo, CD-1 mice (female); details: for %ILS (percent life span): day 1 after 10^6 S-180J cells i.p., observed until death or 40 days, TWEEN 80/glycerol aqueous suspension; for numbers of 40 day survivors: six mice per group
Protocol: Sarcoma 180J Model for Assessment of Tumor Rejection
Six female CD-1 mice (20-25 g) per group received 10^6 S-180J cells (5-8 days old) intraperitoneally (i.p.) on day O. The animals then received formulated drug (0.1 ml) at the desired dose on day 1 following tumor cell injection. The animals were observed until death or 40 days, whichever occurred first. Results using compounds 1-I, 2-I, 3I and 4I are expressed as percent life span (% ILS).
^ a compounds were formulated in TWEEN 80/glycerol aqueous
^b Numbers in parenthesis are numbers of 40 day survivors.

[3] = tested on: B-16 cells; experiment: Peritoneal Exudate Cell Mediated Cytotoxicity in Vitro (macrophages from drug-injected mice); type: cell-based; details: Mus musculus, B16, effector:target 15:1, 24 hours at 37°, read-out: % Cytotoxicity (percent release drug-treated minus vehicle treated); for cytotoxicity at 1 mg/kg: 1 mg/kg injected to mice; for cytotoxicity at 5 mg/kg: 5 mg/kg injected to mice; for cytotoxicity at 25 mg/kg: 25 mg/kg injected to mice
Protocol: Peritoneal Exudate Cell Mediated Cytotoxicity in Vitro
Peritoneal exudate cells (PEC) from normal mice injected with immune potentiators or drug vehicle were harvested by gentle lavage with 3 ml cold RPMI 1640 medium (Grand Island Biological Co., N.Y.) supplemented with 5 units of heparin per ml of medium. Macrophages were identified morphologically, counted, and adjusted to 7.5×10^5 cells per ml of tissue culture medium; 0.2 ml volumes were added to microtiter wells containing 10^4 B-16 cells with ^125 IUDR label (effector: target cell ratio=15:1). After 24 hours at 37° in 5% CO2, supernatants were decanted and the adherent cells washed 3 times with pre-warmed RPMI 1640; the supernatant and washings were pooled and retained for counting. The adherent cells were treated with 1% sodium dodecyl sulfate (SDS) at room temperature for 30 minutes. The SDS-treated cells were harvested and the cells washed 3 times with RPMI 1640; cells and washings were pooled for counting. Supernatants and cells were counted in a Searle 1185 gamma counter. Results were expressed as: [formula]
The table below gives the percent cytotoxicity for 1-I, 2-I and 3-I wherein Percent Cytotoxicity equals (Percent release from drug-treated) minus (Percent release from vehicle treated).

| SMILES | Average Relative Survival (Sr) ([1]; 1.5 mg/kg) | Average Relative Survival (Sr) ([1]; 5 mg/kg) | Average Relative Survival (Sr) ([1]; 15 mg/kg) | %ILS (percent life span) ([2]; 5 mg/kg) [%] | numbers of 40 day survivors ([2]; 5 mg/kg) | %ILS (percent life span) ([2]; 15 mg/kg) [%] | numbers of 40 day survivors ([2]; 15 mg/kg) | %ILS (percent life span) ([2]; 50 mg/kg) [%] | numbers of 40 day survivors ([2]; 50 mg/kg) | cytotoxicity at 1 mg/kg [3] [%] | cytotoxicity at 5 mg/kg [3] [%] | cytotoxicity at 25 mg/kg [3] [%] |
| --- | --- | --- | --- | --- | --- | --- | --- | --- | --- | --- | --- | --- |
| CCCCCCCCCCCCCCCCN(CCCCCCCCCCCCCCCC)Cc1cccc(C(O)CNCC)c1 (stereo not shown) [Compound 1-I, N-ethyl-2-[meta-N,N-di-n-hexadecylaminomethylphenyl]ethanolamine] | 24.5 | 65.5 | 70 | 150 | 1 | 210 | 4 | 235 | 5 | 35.7 | 25.6 | 23.8 |
| CCCCCCCCCCCCCCCCN(CCCCCCCCCCCCCCCC)Cc1cccc(C(O)CNC(C)(C)C)c1 (stereo not shown) [Compound 2-I, N-t-butyl-2-[meta-N,N-di-n-hexadecylamino-methylphenyl]ethanolamine] | 42.5 | 62.5 | 65.5 | 154 | 1 | 134 | – | 160 | 2 | 31.2 | 33.6 | 27.2 |
| CCCCCCCCCCCCCCCCN(CCCCCCCCCCCCCCCC)Cc1cccc(C(O)CN)c1 (stereo not shown) [Compound 4-I, 2-[meta-N,N-di-n-hexadecylaminomethylphenyl]ethanolamine] | – | – | – | 125 | – | 181 | 4 | 212 | 6 | – | – | – |
| CCCCCCCCCCCCCCCCN(CCCCCCCCCCCCCCCC)Cc1cccc(C(O)CNC(C)C)c1 (stereo not shown) [Compound 3-I, N-isopropyl-2-[meta-N,N-di-n-hexadecylaminomethylphenyl]ethanolamine] | 27 | 54 | 87.5 | 154 | 2 | 185 | 4 | 212 | 6 | 42.4 | 35.1 | 33.4 |
